Reference: article PMC10257182, “Discovery of senolytics using machine learning” (Nature Communications, 2023)
Like-named read-outs stand apart in the source and are kept apart here.

Assays:
Assay type in all cases: cell-based, human
[1] = tested on: non-senescent control IMR90 ER:RAS cells; experiment: Nuclei count (Hoechst, high content imaging) senolytic assay, OIS model, non-senescent control cells; settings: Homo sapiens; for viability at 4.677 µM: log (dose) [M] -5.33, 72 h; for viability at 1 µM: log (dose) [M] -6, 72 h; for viability at 4.68 µM: log (dose) [M] -5.33
Method in brief: (§1)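 IMR90 ER:RAS (p14), ±4-OHT 100 nM; cpd 10 nM–10 μM, 10-pt […], 72 h, n=3. Fix formaldehyde, Triton X-100, Hoechst 2 μg/ml final. Readout: imaged nuclei count vs untreated; ouabain positive control.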

[2] = tested on: senescent IMR90 ER:RAS cells (4-OHT-induced); experiment: Nuclei count (Hoechst, high content imaging) senolytic assay, oncogene-induced senescence (OIS) model, senescent cells; settings: for viability at 10 µM / viability at 4.677 µM / viability at 2.188 µM / viability at 1 µM / viability at 0.4677 µM / viability at 0.2188 µM / viability at 0.1 µM / viability at 0.04677 µM / viability at 0.02188 µM / viability at 0.01 µM: Homo sapiens; for viability at 4.677 µM: log (dose) [M] -5.33, 72 h; for viability at 1 µM: log (dose) [M] -6, 72 h; for viability at 0.2188 µM: log (dose) [M] -6.66, 72 h; for viability at 0.1 µM: log (dose) [M] -7, 72 h; for senolytic activity (in words): experimental screen, OIS IMR90 ER:RAS
Method in brief: as §1

[3] = tested on: senescent A549 cells (etoposide-induced); experiment: Nuclei count senolytic assay, therapy-induced senescence (TIS) model, senescent cells; settings: Homo sapiens, A549, Senescent cells, mean, read-out: Mean % Cell Survival; for viability at 10 µM: log (dose) [M] -5; for viability at 4.68 µM: log (dose) [M] -5.33; for viability at 2.19 µM: log (dose) [M] -5.66; for viability at 1 µM: log (dose) [M] -6; for viability at 0.468 µM: log (dose) [M] -6.33; for viability at 0.219 µM: log (dose) [M] -6.66; for viability at 0.1 µM: log (dose) [M] -7; for viability at 0.0468 µM: log (dose) [M] -7.33; for viability at 0.0219 µM: log (dose) [M] -7.66; for viability at 0.01 µM: log (dose) [M] -8
Method in brief: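 Etoposide 100 μM, 48 h, + 3 d standard media → senescent A549; untreated A549 = controls. 24 h post-seeding, cpds 10 nM–10 μM final, 10-pt […], 72 h, n=3. Fix formaldehyde, permeabilise Triton-X100, Hoechst 2 μg/ml, image, count nuclei.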

[4] = IMR-90, 72 h, Control, log (dose) [M] -5, 72 h, mean n=3 (Fig 3C), read-out: Mean % Cell Survival
[5] = IMR-90, 72 h, Control, mean n=3 (Fig 3C), read-out: Mean % Cell Survival
[6] = IMR-90, 72 h, Control, log (dose) [M] -5.66, 72 h, mean n=3 (Fig 3C), read-out: Mean % Cell Survival
[7] = IMR-90, 72 h, Control, log (dose) [M] -6.33, 72 h, mean n=3 (Fig 3C), read-out: Mean % Cell Survival
[8] = IMR-90, 72 h, Control, log (dose) [M] -6.66, 72 h, mean n=3 (Fig 3C), read-out: Mean % Cell Survival
[9] = IMR-90, 72 h, Control, log (dose) [M] -7, 72 h, mean n=3 (Fig 3C), read-out: Mean % Cell Survival
[10] = IMR-90, 72 h, Control, log (dose) [M] -7.33, 72 h, mean n=3 (Fig 3C), read-out: Mean % Cell Survival
[11] = IMR-90, 72 h, Control, log (dose) [M] -7.66, 72 h, mean n=3 (Fig 3C), read-out: Mean % Cell Survival
[12] = IMR-90, 72 h, Control, log (dose) [M] -8, 72 h, mean n=3 (Fig 3C), read-out: Mean % Cell Survival
[13] = IMR-90, Control, log (dose) [M] -5, read-out: % Cell Survival
[14] = IMR-90, Control, read-out: % Cell Survival
[15] = IMR-90, Control, log (dose) [M] -7, read-out: % Cell Survival
[16] = IMR-90, Control, log (dose) [M] -7.33, read-out: % Cell Survival
[17] = IMR-90, Control, log (dose) [M] -7.66, read-out: % Cell Survival
[18] = IMR-90, Control, log (dose) [M] -8, read-out: % Cell Survival
[19] = IMR-90, 72 h, Senescent, log (dose) [M] -5, 72 h, mean n=3 (Fig 3C), read-out: Mean % Cell Survival
[20] = IMR-90, 72 h, Senescent, mean n=3 (Fig 3C), read-out: Mean % Cell Survival
[21] = IMR-90, 72 h, Senescent, log (dose) [M] -5.66, 72 h, mean n=3 (Fig 3C), read-out: Mean % Cell Survival
[22] = IMR-90, 72 h, Senescent, log (dose) [M] -6.33, 72 h, mean n=3 (Fig 3C), read-out: Mean % Cell Survival
[23] = IMR-90, 72 h, Senescent, log (dose) [M] -7.33, 72 h, mean n=3 (Fig 3C), read-out: Mean % Cell Survival
[24] = IMR-90, 72 h, Senescent, log (dose) [M] -7.66, 72 h, mean n=3 (Fig 3C), read-out: Mean % Cell Survival
[25] = IMR-90, 72 h, Senescent, log (dose) [M] -8, 72 h, mean n=3 (Fig 3C), read-out: Mean % Cell Survival
[26] = IMR-90, Senescent cells, log (dose) [M] -6.33, individual replicates, SUP FIG 4C, read-out: % Cell Survival

O=c1c(O)c(-c2ccc(O)cc2)oc2c(O)c(O)cc(O)c12 [Herbacetin, herbacetin]
viability at 10 µM [1, 4]: 100%
viability at 4.677 µM [1, 5]: 108%
viability at 2.188 µM [1, 6]: 97.9%
viability at 1 µM [1, 5]: 74.4%
viability at 0.4677 µM [1, 7]: 94.9%
viability at 0.2188 µM [1, 8]: 93.5%
viability at 0.1 µM [1, 9]: 94.6%
viability at 0.04677 µM [1, 10]: 102%
viability at 0.02188 µM [1, 11]: 109%
viability at 0.01 µM [1, 12]: 107%
viability at 2.188 µM ([1]; IMR-90, Control cells, log (dose) [M] -5.66, individual replicates, SUP FIG 4C, read-out: % Cell Survival): 94.1%
viability at 0.4677 µM ([1]; IMR-90, Control cells, log (dose) [M] -6.33, individual replicates, SUP FIG 4C, read-out: % Cell Survival): 105%
viability at 0.04677 µM ([1]; IMR-90, Control cells, log (dose) [M] -7.33, individual replicates, SUP FIG 4C, read-out: % Cell Survival): 100%
viability at 0.02188 µM ([1]; IMR-90, Control cells, log (dose) [M] -7.66, individual replicates, SUP FIG 4C, read-out: % Cell Survival): 120%
viability at 0.01 µM ([1]; IMR-90, Control cells, log (dose) [M] -8, individual replicates, SUP FIG 4C, read-out: % Cell Survival): 113%
viability at 10 µM [1, 13]: 97.9%
viability at 4.68 µM [1, 14]: 96.8%
viability at 2.19 µM ([1]; IMR-90, Control, log (dose) [M] -5.66, read-out: % Cell Survival): 91.6%
viability at 0.219 µM ([1]; IMR-90, Control, log (dose) [M] -6.66, read-out: % Cell Survival): 93.8%
viability at 0.1 µM [1, 15]: 91.7%
viability at 0.04677 µM [1, 16]: 92.8%
viability at 0.0219 µM [1, 17]: 98.3%
viability at 0.01 µM [1, 18]: 100%
viability at 10 µM [2, 19]: 103%
viability at 4.677 µM [2, 20]: 98.4%
viability at 2.188 µM [2, 21]: 76.1%
viability at 1 µM [2, 20]: 71.6%
viability at 0.4677 µM [2, 22]: 91.9%
viability at 0.2188 µM [2, 20]: 84.1%
viability at 0.1 µM [2, 20]: 95.7%
viability at 0.04677 µM [2, 23]: 90.5%
viability at 0.02188 µM [2, 24]: 97.8%
viability at 0.01 µM [2, 25]: 97.5%
viability at 0.4677 µM [2, 26]: 94.7%
viability at 0.04677 µM ([2]; IMR-90, Senescent cells, log (dose) [M] -7.33, individual replicates, SUP FIG 4C, read-out: % Cell Survival): 85.5%
viability at 0.02188 µM ([2]; IMR-90, Senescent cells, log (dose) [M] -7.66, individual replicates, SUP FIG 4C, read-out: % Cell Survival): 100%
viability at 0.01 µM ([2]; IMR-90, Senescent cells, log (dose) [M] -8, individual replicates, SUP FIG 4C, read-out: % Cell Survival): 91.5%
viability at 0.02188 µM ([2]; IMR-90, Senescent, log (dose) [M] -7.66, read-out: % Cell Survival): 104%
senolytic activity (in words) [2]: inactive
viability at 10 µM [3]: 112%
viability at 4.68 µM [3]: 122%
viability at 2.19 µM [3]: 121%
viability at 1 µM [3]: 87.3%
viability at 0.468 µM [3]: 80.2%
viability at 0.219 µM [3]: 102%
viability at 0.1 µM [3]: 114%
viability at 0.0468 µM [3]: 106%
viability at 0.0219 µM [3]: 98.6%
viability at 0.01 µM [3]: 91.8%

COc1cc(/C=C/C(=O)O[C@H]2CC[C@]34C[C@]35CC[C@]3(C)[C@@H]([C@H](C)CCC=C(C)C)CC[C@@]3(C)[C@@H]5CC[C@H]4C2(C)C)ccc1O [Gamma oryzanol, gamma oryzanol]
viability at 10 µM [1, 4]: 87.1%
viability at 4.677 µM [1, 5]: 92.9%
viability at 2.188 µM [1, 6]: 89.6%
viability at 1 µM [1, 5]: 86.2%
viability at 0.4677 µM [1, 7]: 98.4%
viability at 0.2188 µM [1, 8]: 99.1%
viability at 0.1 µM [1, 9]: 109%
viability at 0.04677 µM [1, 10]: 133%
viability at 0.02188 µM [1, 11]: 118%
viability at 0.01 µM [1, 12]: 115%
viability at 0.2188 µM ([1]; IMR-90, Control cells, log (dose) [M] -6.66, individual replicates, SUP FIG 4C, read-out: % Cell Survival): 93.2%
viability at 10 µM [1, 13]: 113%
viability at 4.68 µM [1, 14]: 105%
viability at 0.1 µM [1, 15]: 103%
viability at 0.04677 µM [1, 16]: 103%
viability at 0.0219 µM [1, 17]: 104%
viability at 0.01 µM [1, 18]: 100%
viability at 10 µM [2, 19]: 145%
viability at 4.677 µM [2, 20]: 134%
viability at 2.188 µM [2, 21]: 135%
viability at 1 µM [2, 20]: 139%
viability at 0.4677 µM [2, 22]: 141%
viability at 0.2188 µM [2, 20]: 142%
viability at 0.1 µM [2, 20]: 132%
viability at 0.04677 µM [2, 23]: 151%
viability at 0.02188 µM [2, 24]: 154%
viability at 0.01 µM [2, 25]: 125%
viability at 10 µM ([2]; IMR-90, Senescent cells, log (dose) [M] -5, individual replicates, SUP FIG 4C, read-out: % Cell Survival): 150%
viability at 2.188 µM ([2]; IMR-90, Senescent cells, log (dose) [M] -5.66, individual replicates, SUP FIG 4C, read-out: % Cell Survival): 137%
viability at 0.4677 µM [2, 26]: 153%
viability at 0.01 µM ([2]; IMR-90, Senescent, log (dose) [M] -8, read-out: % Cell Survival): 81.6%
senolytic activity (in words) [2]: inactive
viability at 10 µM [3]: 96.8%
viability at 4.68 µM [3]: 100%
viability at 2.19 µM [3]: 105%
viability at 1 µM [3]: 106%
viability at 0.468 µM [3]: 107%
viability at 0.219 µM [3]: 105%
viability at 0.1 µM [3]: 114%
viability at 0.0468 µM [3]: 126%
viability at 0.0219 µM [3]: 61.5%
viability at 0.01 µM [3]: 76%
